Data taken from patent US10017492B2 (KANGPU BIOPHARMACEUTICALS, LTD., priority 2014, dated 2018).

Tests used:
[1] = test system: MM.1S cells (myeloma cells); assay: Cell proliferation assay (MTS), MM.1S myeloma cells; assay type: cell-based; conditions: Homo sapiens, MM1.S, 72 hours, read-out: IC50 values of MMIS Inhibition
Outline: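 MM.1S myeloma cells were seeded at 1.8×10^3 per well in RPMI and rested 24 hours before 72 hours of compound exposure at 37° C., 5% CO2, with final DMSO at 0.5%. Viability was read by MTS at OD490 nm, using OD650 nm as reference. IC50 came from variable-slope curves, with the 0.5% DMSO control set as 0% inhibition.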

[2] = test system: Rec-1 cells (Mantle cell lymphoma cells); assay: CTG cell proliferation assay, Rec-1 cells; assay type: cell-based; conditions: Homo sapiens, Rec1, 72-120 hours, CellTiter-Glo, read-out: IC50 Value of Rec-1 Inhibition
Method: (§1) CTG Cell Proliferation Assay
(§2) Rec-1 cells (Mantle cell lymphoma cells) (ATCC, catalog number CRL-3004), Namalwa.CSN/70 cells (Burkitt lymphoma cells) (DSMZ, catalog number ACC-70), and WSU-DLCL-2 cells (diffuse large B cell lymphoma cells) (DSMZ, catalog number ACC-575) were seeded at (5-15)×10^3 per well to a 96-well plate with transparent bottom and white wall (Corning, catalog number CLS3903) containing specific medium. The plate was placed in an incubator and incubated for 24 hours at 37° C. under 5% CO2. Compounds were prepared as 150 mM stock solutions with DMSO (Sigma, catalog number 276855), and were diluted with the medium to the desired concentration (the final concentration of DMSO was 0.2%) and then were added to each well, incubated in an incubator for 72-120 hours at 37° C. under 5% CO2. Then, 100 μl CellTiter-Glo® cell activity assay reagent (Promega, catalog number G7570) was added to each well. Mixing proceeded for 10 minutes on a shaker to induce cytolysis. The 96-well plate was placed at room temperature for 10 minutes to make the luminous signal stable. A white base film was pasted at the bottom of the culture plate. EnSpire was used to test the plate.

TNF-α = TNF-α activity inhibiting assay (LPS-stimulated peripheral blood, ELISA); assay type: cell-based, human; conditions: Homo sapiens, compound 100 nM, diluted peripheral blood of healthy volunteers, LPS 10 ng/mL, 6 hours, read-out: Inhibitory Rate on TNF-α (%)
Outline: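 Human whole blood (EDTA), diluted 5-fold in RPMI 1640, pre-incubated 60 min at 37 °C with compound at 100 nM final (0.2% DMSO), then stimulated 6 h with 10 ng/mL LPS. Supernatant TNF-α measured by ELISA (OD450); inhibition relative to 0.2% DMSO control.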

[3] = test system: Namalwa.CSN/70 cells (Burkitt lymphoma cells); assay: CTG cell proliferation assay, Namalwa.CSN/70 cells; assay type: cell-based; conditions: 72-120 hours, CellTiter-Glo, read-out: IC50 Value of Namalwa.CSN/70 Inhibition
Method: as §1, §2

[4] = test system: WSU-DLCL-2 cells (diffuse large B cell lymphoma cells); assay: CTG cell proliferation assay, WSU-DLCL-2 cells; assay type: cell-based; conditions: Homo sapiens, WSUDLCL2, WSU-DLCL-2 cells, 72-120 hours, CellTiter-Glo; read-out: IC50 Value of WSU-DLCL2 Inhibition
Method: as §1, §2

| IC50 [1] [nM] | IC50 [2] [nM] | IC50 [3] [nM] | IC50 [4] [nM] | Compound | inhibition at 0.1 µM (TNF-α) [%] |
| --- | --- | --- | --- | --- | --- |
| < 300 | < 100 | 100 to 400 | 401 to 300000 | [2H][C@]1(N2Cc3c(NCc4ccc(OC)cc4F)cccc3C2=O)CCC(=O)NC1=O [Compound A356, (S)-3-deuterium-3-(4-((2-fluoro-4-methoxybenzyl)amino)-1-oxoisoindolin-2-yl)piperidine-2,6-dione] | ≥ 50 |
| < 300 | < 100 | > 300000 | < 100 | O=C1CCC(N2Cc3c(NCc4ccc(CN5CCOCC5)cc4F)cccc3C2=O)C(=O)N1 (stereo not drawn) [Compound A382] | ≥ 50 |
| < 300 | < 100 | > 300000 | > 300000 | Nc1cc(F)cc2c1CN(C1CCC(=O)NC1=O)C2=O (stereo not drawn) [Compound I-28, 3-(4-amino-6-fluoro-1-oxoisoindolin-2-yl)piperidine-2,6-dione] | > 50 |
| < 300 | < 100 | > 300000 | 401 to 300000 | O=C1CCC(N2Cc3c(OCc4cccc(CN5CCOCC5)c4F)cccc3C2=O)C(=O)N1 (stereo not drawn) [Compound A399, 3-(4-((2-fluoro-3-(morpholinomethyl)benzyl)oxy)-1-oxoisoindolin-2-yl)piperidine-2,6-dione] | ≥ 50 |
| ≥ 300 | 100 to 400 | > 300000 | > 300000 | Nc1cccc2c1CN(C1CCC(=O)NC1=O)C2=O (stereo not drawn) [Lenalidomide, 3-(4-amino-1,3-dihydro-1-oxo-2H-isoindole-2-yl)-piperidine-2,6-dione, reference compound] | < 50 |
| < 300 | < 100 | > 300000 | 401 to 300000 | [2H][C@]1(N2Cc3c(OCc4cccc(CN5CCOCC5)c4F)cccc3C2=O)CCC(=O)NC1=O [Compound A404, (S)-3-deuterium-3-(4-((2-fluoro-3-(morpholinomethyl)benzyl)oxy)-1-oxoisoindolin-2-yl)piperidine-2,6-dione] | ≥ 50 |
| < 300 | < 100 | > 300000 | > 300000 | COc1cccc(COc2cccc3c2CN(C2CCC(=O)NC2=O)C3=O)c1F (stereo not drawn) [Compound A334, 3-(4-((2-fluoro-3-methoxybenzyl)oxy)-1-oxoisoindolin-2-yl)piperidine-2,6-dione] | ≥ 50 |
| < 300 | 100 to 400 | > 300000 | 401 to 300000 | [2H][C@]1(N2Cc3c(NCc4cccc(CN5CCOCC5)c4F)cccc3C2=O)CCC(=O)NC1=O [Compound A400, (S)-3-deuterium-3-(4-((2-fluoro-3-(morpholinomethyl)benzyl)amino)-1-oxoisoindolin-2-yl)piperidine-2,6-dione] | ≥ 50 |
| < 300 | < 100 | > 300000 | 401 to 300000 | O=C1CCC(N2Cc3c(OCc4ccc(CN5CCOCC5)cc4F)cc(F)cc3C2=O)C(=O)N1 (stereo not drawn) [Compound A407] | < 50 |
| < 300 | 100 to 400 | > 300000 | 401 to 300000 | O=C1CCC(N2Cc3c(NCc4cc(CN5CCOCC5)ccc4F)cccc3C2=O)C(=O)N1 (stereo not drawn) [Compound A383, 3-(4-((2-fluoro-5-(morpholinomethyl)benzyl)amino)-1-oxoisoindolin-2-yl)piperidine-2,6-dione] | ≥ 50 |
| < 300 | < 100 | > 300000 | < 100 | [2H][C@]1(N2Cc3c(OCc4ccc(CN5CCOCC5)cc4F)cccc3C2=O)CCC(=O)NC1=O [Compound A406, (S)-3-deuterium-3-(4-((2-fluoro-4-(morpholinomethyl)benzyl)oxy)-1-oxoisoindolin-2-yl)piperidine-2,6-dione] | ≥ 50 |
| < 300 | < 100 | > 300000 | 401 to 300000 | [2H][C@]1(N2Cc3c(OCc4cc(CN5CCOCC5)ccc4F)cccc3C2=O)CCC(=O)NC1=O [Compound A403, (S)-3-deuterium-3-(4-((2-fluoro-5-(morpholinomethyl)benzyl)oxy)-1-oxoisoindolin-2-yl)piperidine-2,6-dione] | ≥ 50 |
